Starred links: 1 amine or outer side, 2 acyl side, 3 side chain; linkers in the order of their positions; H or OH if unused. Positions of bridges follow the written chain, without caps; N, C: chain ends. Non-standard residues stand in square brackets, D forms with d. Residues, ends and D or L forms follow the SMILES beside them. *: point of attachment. hTyr(3S-OH,4S-OH,3'-OSO3H) = N[C@H](C(=O)O)[C@H](O)[C@@H](O)c1ccc(O)c(OS(=O)(=O)O)c1; Orn(4R-OH,5R-OH) = O=C([C@H](C[C@@H](O)[C@@H](O)N[*:3])N[*:1])[*:2]; Pro(3S-OH,4S-Me) = C[C@H]1CN[C@H](C(=O)O)[C@H]1O; X1 = CCCCCOc1ccc(-c2cc(-c3ccc(C(=O)*)cc3)no2)cc1; Gln(3R-OH) = NC(=O)C[C@@H](O)[C@H](N)C(=O)O; Hyp = O=C(O)[C@@H]1C[C@@H](O)CN1
System: Rat Primary Kidney Glomerular Endothelial cells
Test: Oxygen and glucose deprivation followed by replenishment, cell survival (calcein AM), rat glomerular endothelial cells;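 as to Survival rate (%): 100% is hypoxia control with glucose and 0% is untreated OGD control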
Format: cell-based
Protocol: Anidulafungin and micafungin were tested on Human Renal Glomerular Endothelial Cells (HRGEC, Innoprot P10665), on Human Renal Proximal Tubular Epithelial Cells (HRPTEpiC, Innoprot P10662), on Human Astrocytes (HA, caltag SC-1800), on Human Cardiac Microvascular Endothelial Cells (HCMEC, Caltag SC-6000), on Human Hepatic Sinusoidal Endothelial Cells (HHSEC, Caltag SC-5000), on Rat Primary Kidney Glomerular Endothelial cells (Cellbiologics, RN-6014G) and on Bovine Brain Microvascular Endothelial Cells (BBMEC, Caltag SC-B100).
In a first phase, these isolated, purified and cryopreserved cells are thawed and multiplied according to the supplier's recommendations in T75 or T175 flasks pre-coated with 2 μg of fibronectin/[…] (CORNING) for HRGEC, HCMEC, HHSEC and BBMEC, or 2 μg poly-L-lysin/cm^2 (Caltag SC-0403) for HRPTEpiC and HA, or 15 mL/flask 175 cm^2 gelatin-based solution (Cellbiologics) in the presence of endothelial cell supplemented growth medium ECM (P60104, INNOPROT, Caltag, SC-1001) for HRGEC, HCMEC, HHSEC, RPKGEC or BBMEC, or astrocyte cell supplemented growth medium AM (Caltag SC-1801) for HA or epithelial cell supplemented growth medium EpiCM (P60106, INNOPROT) for HRPTEpiC, at 37° C. under 5% CO2 and saturated humidity until their confluency. They are then harvested by trypsinization according to the method described by the supplier for exactly 5 minutes and then reseeded in new flasks a maximum of three times.
To carry out the oxygen and glucose deprivation test followed by their replenishment, the cells will be seeded in 96-well black plates with transparent flat bottom (GREINER). Once a sufficient number of cells has been obtained to allow seeding of 2000 to 15000 cells per well of 96-well plates depending on the cell type, the cells are seeded in these 96-well plates previously coated with an extracellular matrix as listed above for the flasks. The cells are cultured for 5 to 8 days according to the cell type, in the presence of the same growth medium as in the flask as described above except for HRGEC and HRPTEpiC for which DMEM (DUTSCHER) with 1 g/L of supplemented glucose is used, at 37° C. under 5% CO2 and saturated humidity to obtain confluency.
On the first day of oxygen and glucose deprivation, (5th, 6th, 7th or 8th day of culture), the culture conditions are drastically changed. The medium of all plates is removed and replaced by DMEM (DUTSCHER) medium without glucose and supplemented only with 1% penicillin-streptomycin (DUTSCHER). Anidulafungin or micafungin dissolved in dimethyl sulfoxide (DMSO) is then added to each well at the desired concentration, resulting in a maximum of 1% DMSO, and the plates are placed under hypoxia at <1% 02 and 5% CO2 at 37° C. for 24 hours of culture. Each compound was tested in a concentration range.
After 24 hours, the growth medium is changed and replaced by a richer medium, DMEM (DUTSCHER) at 1 g/L glucose and 2% FBS (INNOPROT) and 1% penicillin-streptomycin (DUTSCHER). These media will have been pre-equilibrated at 37° C. in advance. The cells are then returned to culture at 37° C. under 20% 02 and 5% CO2 for 22h.
After 22 hours of reoxygenation, the potential protective effect of anidulafungin or micafungin is measured by a cell viability test using calcein AM (CORNING), which is a dye substrate. The calcein AM can easily cross the cell membrane of the viable cells. The AM ester groups mask the part of the molecule that chelates calcium. Once inside the cells, the (non-fluorescent) calcein AM is hydrolyzed to (fluorescent) calcein by endogenous esterases. The resulting calcein molecule binds to calcium inside the cell and remains trapped inside the cell. These molecules emit strong green fluorescence when subjected to […] of a particular wavelength (495 nm). Since dead cells lack esterase activity, only living cells are labelled.
This cell viability test is performed in two steps. […]

## CCCCCOc1ccc(-c2cc(-c3ccc(C(=O)N[C@H]4C[C@@H](O)[C@@H](O)NC(=O)[C@@H]5[C@@H](O)[C@@H](C)CN5C(=O)[C@H]([C@H](O)CC(N)=O)NC(=O)[C@H]([C@H](O)[C@@H](O)c5ccc(O)c(OS(=O)(=O)O)c5)NC(=O)[C@@H]5C[C@@H](O)CN5C(=O)[C@H]([C@@H](C)O)NC4=O)cc3)no2)cc1 [Micafungin, {5-[(1S,2S)-2-[(3S,6S,9S,11R,15S,18S,20R,21R,24S,25S,26S)-3-[(1R)-2-carbamoyl-1-hydroxyethyl]-11,20,21,25-tetrahydroxy-15-[(1R)-1-hydroxyethyl]-26-methyl-2,5,8,14,17,23-hexaoxo-18-[(4-{5-[4-(pentyloxy)phenyl]-1,2-oxazol-3-yl}benzene)amido]-1,4,7,13,16,22-hexaazatricyclo[22.3.0.0]heptacosan-6-yl]-1,2-dihydroxyethyl]-2-hydroxyphenyl}oxidanesulfonic acid] (X1-[Orn(4R-OH,5R-OH)]T[Hyp][hTyr(3S-OH,4S-OH,3'-OSO3H)][Gln(3R-OH)][Pro(3S-OH,4S-Me)]; lactam 1-C)
[Micafungin] log μM 0
  Globalfluo assay 1: 5417339 arbitrary units
  Globalfluo assay 2: 3464807 arbitrary units
  Globalfluo assay 3: 4867657 arbitrary units
  Mean globalfluo: 4583268 arbitrary units
  Survival rate (%): 3%
[Micafungin] log μM 0.1760913
  Globalfluo assay 1: 8740776 arbitrary units
  Globalfluo assay 2: 7981119 arbitrary units
  Globalfluo assay 3: 5239211 arbitrary units
  Mean globalfluo: 7320369 arbitrary units
  Survival rate (%): 14%
[Micafungin] log μM 0.30103
  Globalfluo assay 1: 3351615 arbitrary units
  Globalfluo assay 2: 4221516 arbitrary units
  Globalfluo assay 3: 4567106 arbitrary units
  Mean globalfluo: 4046746 arbitrary units
  Survival rate (%): 0%
[Micafungin] log μM 0.39794
  Globalfluo assay 1: 5495171 arbitrary units
  Globalfluo assay 2: 5446233 arbitrary units
  Globalfluo assay 3: 3835973 arbitrary units
  Mean globalfluo: 4925792 arbitrary units
  Survival rate (%): 4%
[Micafungin] log μM 0.4771213
  Globalfluo assay 1: 4782175 arbitrary units
  Globalfluo assay 2: 7854686 arbitrary units
  Globalfluo assay 3: 4782283 arbitrary units
  Mean globalfluo: 5806381 arbitrary units
  Survival rate (%): 8%
[Micafungin] log μM 0.60206
  Globalfluo assay 1: 12878800 arbitrary units
  Globalfluo assay 2: 13369330 arbitrary units
  Globalfluo assay 3: 12813230 arbitrary units
  Mean globalfluo: 13020453 arbitrary units
  Survival rate (%): 37%
[Micafungin] log μM 0.69897
  Globalfluo assay 1: 14177330 arbitrary units
  Globalfluo assay 2: 11602990 arbitrary units
  Globalfluo assay 3: 9423392 arbitrary units
  Mean globalfluo: 11734571 arbitrary units
  Survival rate (%): 31%
[Micafungin] log μM 0.7781513
  Globalfluo assay 1: 5553126 arbitrary units
  Globalfluo assay 2: 6638483 arbitrary units
  Globalfluo assay 3: 7505823 arbitrary units
  Mean globalfluo: 6565811 arbitrary units
  Survival rate (%): 11%
[Micafungin] log μM 0.845098
  Globalfluo assay 1: 7968558 arbitrary units
  Globalfluo assay 2: 13328410 arbitrary units
  Globalfluo assay 3: 4864200 arbitrary units
  Mean globalfluo: 8720389 arbitrary units
  Survival rate (%): 19%
[Micafungin] log μM 0.90309
  Globalfluo assay 1: 16467230 arbitrary units
  Globalfluo assay 2: 5461253 arbitrary units
  Globalfluo assay 3: 9297072 arbitrary units
  Mean globalfluo: 10408518 arbitrary units
  Survival rate (%): 26%
[Micafungin] log μM 0.9542425
  Globalfluo assay 1: 17001920 arbitrary units
  Globalfluo assay 2: 15398170 arbitrary units
  Globalfluo assay 3: 11994410 arbitrary units
  Mean globalfluo: 14798167 arbitrary units
  Survival rate (%): 44%
[Micafungin] log μM 1
  Globalfluo assay 1: 24112850 arbitrary units
  Globalfluo assay 2: 13345620 arbitrary units
  Globalfluo assay 3: 20572260 arbitrary units
  Mean globalfluo: 19343577 arbitrary units
  Survival rate (%): 62%
[Micafungin] log μM 1.041393
  Globalfluo assay 1: 8422700 arbitrary units
  Globalfluo assay 2: 12678250 arbitrary units
  Globalfluo assay 3: 11578770 arbitrary units
  Mean globalfluo: 10893240 arbitrary units
  Survival rate (%): 28%
[Micafungin] log μM 1.079181
  Globalfluo assay 1: 11147190 arbitrary units
  Globalfluo assay 2: 19591720 arbitrary units
  Globalfluo assay 3: 15002320 arbitrary units
  Mean globalfluo: 15247077 arbitrary units
  Survival rate (%): 46%
[Micafungin] log μM 1.176091
  Globalfluo assay 1: 17307060 arbitrary units
  Globalfluo assay 2: 19173810 arbitrary units
  Globalfluo assay 3: 18057880 arbitrary units
  Mean globalfluo: 18179583 arbitrary units
  Survival rate (%): 57%
[Micafungin] log μM 1.30103
  Globalfluo assay 1: 21761030 arbitrary units
  Globalfluo assay 2: 21216730 arbitrary units
  Globalfluo assay 3: 18246850 arbitrary units
  Mean globalfluo: 20408203 arbitrary units
  Survival rate (%): 66%
[Micafungin] log μM 1.477121
  Globalfluo assay 1: 23916400 arbitrary units
  Globalfluo assay 2: 22885210 arbitrary units
  Globalfluo assay 3: 21104460 arbitrary units
  Mean globalfluo: 22635357 arbitrary units
  Survival rate (%): 75%
[Micafungin] log μM 1.60206
  Globalfluo assay 1: 21279700 arbitrary units
  Globalfluo assay 2: 21255650 arbitrary units
  Globalfluo assay 3: 20543100 arbitrary units
  Mean globalfluo: 21026150 arbitrary units
  Survival rate (%): 69%
[Micafungin] log μM 1.778151
  Globalfluo assay 1: 22384980 arbitrary units
  Globalfluo assay 2: 24586670 arbitrary units
  Globalfluo assay 3: 22823930 arbitrary units
  Mean globalfluo: 23265193 arbitrary units
  Survival rate (%): 78%
[Micafungin] log μM 1.90309
  Globalfluo assay 1: 25482590 arbitrary units
  Globalfluo assay 2: 16667370 arbitrary units
  Globalfluo assay 3: 22222960 arbitrary units
  Mean globalfluo: 21457640 arbitrary units
  Survival rate (%): 71%
[Micafungin] log μM 2
  Globalfluo assay 1: 23318050 arbitrary units
  Globalfluo assay 2: 20442770 arbitrary units
  Globalfluo assay 3: 22906760 arbitrary units
  Mean globalfluo: 22222527 arbitrary units
  Survival rate (%): 74%
[Micafungin] log μM 2.176091
  Globalfluo assay 1: 20166170 arbitrary units
  Globalfluo assay 2: 24333680 arbitrary units
  Globalfluo assay 3: 26066530 arbitrary units
  Mean globalfluo: 23522127 arbitrary units
  Survival rate (%): 79%
[Micafungin] log μM −0.154902
  Globalfluo assay 1: 3831476 arbitrary units
  Globalfluo assay 2: 4395798 arbitrary units
  Globalfluo assay 3: 3538568 arbitrary units
  Mean globalfluo: 3921947 arbitrary units
  Survival rate (%): 0%
[Micafungin] log μM −0.30103
  Globalfluo assay 1: 4962690 arbitrary units
  Globalfluo assay 2: 4263110 arbitrary units
  Globalfluo assay 3: 4133198 arbitrary units
  Mean globalfluo: 4452999 arbitrary units
  Survival rate (%): 2%
[Micafungin] log μM −0.5228788
  Globalfluo assay 1: 4164368 arbitrary units
  Globalfluo assay 2: 5246152 arbitrary units
  Globalfluo assay 3: 3621246 arbitrary units
  Mean globalfluo: 4343922 arbitrary units
  Survival rate (%): 2%
[Micafungin] log μM −1
  Globalfluo assay 1: 4086038 arbitrary units
  Globalfluo assay 2: 5779074 arbitrary units
  Globalfluo assay 3: 4555233 arbitrary units
  Mean globalfluo: 4806782 arbitrary units
  Survival rate (%): 4%
[Micafungin] log μM −2
  Globalfluo assay 1: 4295861 arbitrary units
  Globalfluo assay 2: 4126418 arbitrary units
  Globalfluo assay 3: 4707699 arbitrary units
  Mean globalfluo: 4376659 arbitrary units
  Survival rate (%): 2%
[Micafungin] log μM −3
  Globalfluo assay 1: 4397869 arbitrary units
  Globalfluo assay 2: 4804046 arbitrary units
  Globalfluo assay 3: 3922702 arbitrary units
  Mean globalfluo: 4374872 arbitrary units
  Survival rate (%): 2%

— patent US11458189B2, “Cytoprotective drugs” (BALMES TRANSPLANTATION, priority 2017, dated 2022)
